Tests used:
[1] = tested on: wild-type and LAR−/− mice; assay: In vivo angiogenesis assay (Matrigel plug); parameters: species or system mouse; details: in the presence of PPP
Description: The Matrigel plug assay was used to assess in vivo angiogenesis. […] Mice were sacrificed after 10 days and the plugs were carefully dissected from the mice. The plugs were weighed, analyzed histologically or for hemoglobin content using Drabkin hemoglobin assay kit (Sigma Chemical Co., St. Louis, Mo.). Hemoglobin levels in the Matrigel plugs correlate well with blood vessel growth (Volin et al., Am. J. Pathol. 159:1521 (2001)). The Matrigel plugs were homogenized on ice and centrifuged. Fifty μl of the supernatant were mixed with 950 μl Drabkin's reagent and the reaction was allowed to develop at room temperature for 30 min. Absorbance was read at 540 nm and hemoglobin concentration was determined by comparison to a standard curve generated using known concentrations of hemoglobin. For histological analysis, Matrigel plugs were formalin-fixed, paraffin-embedded, cut into 5 μm sections, and Massons trichrome-stained. In brief, sections were hydrated in distilled water, incubated in Bouin's fixative for 3 h to overnight, and then washed in running tap water until yellow color disappeared. […] Image J was used to quantify the number of vessel-like structures in each field. Total number of microvessels containing red blood cells and number of capillaries in a high power field (20× magnifications) were counted. […]

IGF-1Rβ = target: T1, IGF-1Rβ (Homo sapiens, UniProt P08069); assay: IGF-1-induced IGF-1Rβ autophosphorylation in HUVECs (immunoprecipitation/Western); format: cell-based
T1 construct: endogenous in cells; host or cells: HUVEC (Cambrex)
T1 sequence (P08069 31-1367): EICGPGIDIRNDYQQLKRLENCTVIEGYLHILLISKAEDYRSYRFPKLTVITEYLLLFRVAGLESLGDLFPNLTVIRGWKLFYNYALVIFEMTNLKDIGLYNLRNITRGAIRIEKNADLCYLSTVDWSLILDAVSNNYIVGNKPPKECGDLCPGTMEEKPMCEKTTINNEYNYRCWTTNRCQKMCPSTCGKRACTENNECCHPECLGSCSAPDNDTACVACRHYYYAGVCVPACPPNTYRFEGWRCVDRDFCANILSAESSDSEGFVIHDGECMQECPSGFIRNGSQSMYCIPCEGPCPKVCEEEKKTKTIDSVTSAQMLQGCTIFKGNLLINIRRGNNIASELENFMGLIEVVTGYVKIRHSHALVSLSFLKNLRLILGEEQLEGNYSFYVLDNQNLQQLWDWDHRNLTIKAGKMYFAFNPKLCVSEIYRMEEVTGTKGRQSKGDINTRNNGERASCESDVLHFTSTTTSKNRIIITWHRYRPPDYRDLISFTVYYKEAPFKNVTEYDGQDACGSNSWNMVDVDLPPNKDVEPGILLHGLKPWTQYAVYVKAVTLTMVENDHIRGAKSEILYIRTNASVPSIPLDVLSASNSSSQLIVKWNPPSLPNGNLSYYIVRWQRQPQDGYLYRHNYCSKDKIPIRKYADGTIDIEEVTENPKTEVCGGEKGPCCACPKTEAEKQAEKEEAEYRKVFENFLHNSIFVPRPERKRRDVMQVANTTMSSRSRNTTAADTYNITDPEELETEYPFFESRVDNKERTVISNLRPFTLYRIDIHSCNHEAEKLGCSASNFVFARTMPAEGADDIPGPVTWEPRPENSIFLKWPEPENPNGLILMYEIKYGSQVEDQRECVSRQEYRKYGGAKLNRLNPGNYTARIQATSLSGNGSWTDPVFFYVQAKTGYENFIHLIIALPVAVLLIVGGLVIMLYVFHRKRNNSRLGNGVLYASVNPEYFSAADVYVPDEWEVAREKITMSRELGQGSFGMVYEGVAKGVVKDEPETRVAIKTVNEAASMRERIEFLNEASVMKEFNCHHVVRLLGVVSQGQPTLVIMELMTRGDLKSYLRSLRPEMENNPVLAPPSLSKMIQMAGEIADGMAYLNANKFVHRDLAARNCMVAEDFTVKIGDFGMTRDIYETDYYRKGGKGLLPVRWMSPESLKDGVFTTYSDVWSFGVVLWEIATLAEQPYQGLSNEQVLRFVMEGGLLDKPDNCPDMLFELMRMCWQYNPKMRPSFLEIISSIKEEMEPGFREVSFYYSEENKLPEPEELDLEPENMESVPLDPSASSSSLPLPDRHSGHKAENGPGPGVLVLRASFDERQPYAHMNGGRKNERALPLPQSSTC
Procedure: (§1) Human umbilical vein endothelial cells (HUVECs) were purchased from Cambrex (San Diego, Calif.) and were maintained in medium 199 (Mediatech, Inc, Herndon, Va.) containing 90 μg/ml heparin, 30 μg/ml endothelial cell growth supplements (BD Biosciences, Bedford, Mass.), 20% FBS, 50 μg/mL gentamicin, and 50 μg/mL amphotericin. Cultures were maintained at 37° C. in a humidified incubator (95% air, 5% CO2). HUVECs, grown to 80% confluence, were growth arrested by overnight incubation in medium 199 supplemented with 0.1% serum.
(§2) Preparation of cell lysates, immunoprecipitation and immunoblotting were performed as described (Reinmuth et al., Clin. Cancer Res. 8:3259 (2002)).
(§3) Adenoviral infection of nearly confluent HUVECs was performed with indicated multiplicity of infection in medium 199 containing 2% FBS. After 16 h incubation, the cells were quiesced overnight in medium 199 containing 0.1% FBS. Then HUVECs were treated with the indicated agonists in serum-free medium 199.
(§4) The LAR siRNA (sc-35793, containing three siRNAs (SEQ ID NOS:1-3)) and a scrambled, non-silencing siRNA (sc-36869) were obtained from Santa Cruz Biotechnology. […] HUVECs were treated with the indicated agonists in serum-free medium 199 and LAR expression was assessed by Western analysis.

HUVECs = assay: Matrigel morphogenesis assay (endothelial tube/cord formation); format: cell-based, human; details: 1 μM PPP
Procedure: Growth factor-reduced Matrigel was thawed at 4° C. on ice and 300 μl/well were added to a 24-well plate prechilled at −20° C. using a cold pipette. Matrigel was allowed to polymerize for 30 min at 37° C. HUVECs were either left uninfected or were infected with AdLAR or Adβ-gal. In a separate set of experiments, HUVECs were transfected with LAR siRNA or control siRNA as described above. […] In vitro tube formation was assessed after 5 h incubation. Cell cultures were observed under a phase contrast microscope and photographed in five different random fields (10× magnification). The mean tube length per field was quantified using NIH Image J.

[2] = tested on: aortic rings from wild-type and LAR−/− mice; assay: Ex vivo angiogenesis assay (aortic ring sprouting); parameters: species or system mouse
Procedure: The angiogenesis assay was performed as described previously (Huang et al., J. Biol. Chem. 277:10760 (2002)) with some modifications. Thoracic aortas were excised from 8-12-week-old wild-type and LAR knockout male mice (DBA background) and immediately placed into cold medium 199 containing 10% FBS. Clotted blood inside the aortas was flushed with media, and the periadventitial fibroadipose tissue was removed. Aortas were then cut into cross-sectional rings of ˜1-1.5 mm in length. Rings were placed into 60-mm dishes containing 0.4 ml of cold growth factor-reduced Matrigel and then incubated at 37° C. until the Matrigel was polymerized. The aortic rings embedded in the Matrigel were overlaid with 0.5 ml of serum-free endothelial cell growth medium with or without the growth factors. The rings were maintained at 37° C. for up to 10 days with medium changes every 2 days. Vascular sprouting from the rings was examined daily under a Leica microscope (10× magnification), and digital images were obtained. Quantitative analysis of endothelial sprouting was performed using images from day 10, and sprout length was quantified using NIH Image J. The distance from the aortic ring body to the end of the vascular sprouts was measured at three distinct points per ring.

Akt, eNOS and ERK1/2 = assay: IGF-1-induced phosphorylation of Akt, eNOS and ERK1/2 in HUVECs (Western); format: cell-based, human; details: 100 ng/mL IGF-1, AdLAR at 2.5 MOI
Procedure: as §1, §2, §3, §4

Compound	Number of microvessels in IGF-1 embedded Matrigel plugs ([1]; LAR−/− mice)	Hemoglobin content of IGF-1 embedded Matrigel plugs ([1]; 10 days, significant in LAR−/− mice (P=0.01))	IGF-1Rβ autophosphorylation in HUVECs treated with IGF-1 (IGF-1Rβ; 1 μM PPP)	IGF-1Rβ autophosphorylation in HUVECs treated with IGF-1, dose dependence (IGF-1Rβ; PPP pretreatment 1 h, 100 ng/mL IGF-1 10 min)	IGF-1-induced cord formation in scrambled siRNA and LAR siRNA transfected HUVECs (HUVECs)	Mean length of sprouts from IGF-1 treated wild-type and LAR−/− aortic rings ([2]; 1 μM PPP, 10 days in Matrigel)	IGF-1-induced phosphorylation of Akt, eNOS and ERK1/2 (Akt, eNOS and ERK1/2)	Mean length of newly sprouted vessels from aortic rings ([2]; wild-type and LAR−/− mice, IGF-1 treatment, day 10)
COc1cc([C@@H]2c3cc4c(cc3[C@H](O)[C@H]3COC(=O)[C@@H]23)OCO4)cc(OC)c1OC [PPP, picropodophyllin]	significantly decreased	decreased in both wild-type and LAR^−/− mice	significant inhibition	dose-dependent inhibition	abrogated	significantly inhibited	–	–
IGF-1: Recombinant human IGF-1 purchased from R&D Systems	–	–	–	–	–	–	increased	significantly enhanced

Source: US20130171163A1, “Inhibition of LAR Phosphatase to Enhance Therapeutic Angiogenesis” (priority 2010, published 2013)
